The values below come from paper PMC5466598, “Synthesis, Chemical Characterization and Multiscale Biological Evaluation of a Dimeric-cRGD Peptide for Targeted Imaging of αVβ3 Integrin Activity” (Scientific Reports, 2017).

One data set has as its target α V β 3 receptor. Particulars: cited from earlier work; for Kd: comparison values quoted in discussion, no reference given, read-out: binding affinity (Kd); for k off: dissociation from α V β 3 receptor.
Data set [1] can be described thus: Biodistribution by gamma well counting at 90 min post-injection. Type of data set: in vivo, Lewis rats. The note with it: Lewis, rat, iv, total radioactivity, 90 min after intravascular injection. How it is done:
To assess blood clearance and organ uptake dynamic in vivo PET-CT imaging was performed followed by image processing and analysis. Lewis rats (n = 6, Harlan Inc.) were anesthetized with 2% isoflurane, the neck area was shaved and a jugular vein cut-down procedure was performed to insert a PE-50 […] catheter for radiotracer injection. Animals were then placed in supine position on the polyacrylic imaging bed of a small animal dedicated PET-CT scanner (Inveon, Siemens Healthcare, USA). At the time of PET acquisition, animals were injected with ~22.2 MBq of (7) via the jugular vein catheter over 30 s followed by bolus infusion of 0.2 mL sterile saline. Animals underwent 60 min dynamic PET imaging (15% energy window centered at 511 keV) followed by anatomical X-ray CT imaging (80 keV, 500 μA, 100 μm spatial resolution).
For biodistribution studies, all animals were euthanized at 90 min post-injection and selected organ samples were collected for gamma well counting analysis. All collected sections were weighed and the tissue radioactivity was measured with Wizard^2 gamma well counter (Perkin-Elmer, USA). Measured ^64Cu activity was corrected for background, decay time, and tissue weight.

A short description of data set [2]: In vivo stability / metabolism (HPLC of urine and feces). The arrangement: species or system Lewis rats. How it is done: Following dynamic PET-CT imaging, both urine and feces samples were collected to assess radiotracer’s metabolism and excretion route. The urine samples were collected at 90 min post injection by manual void, mixed at 1:1 ratio (v/v) with 50% CH3 CN and centrifuged at 5000 rpm. The supernatant was collected, analyzed by HPLC (C18 column, flow 1 mL/min, CH3 OH/H2 O, 5/95, v/v), and chromatograms compared to reference samples of (7) and ^64Cu-acetate. Feces samples were collected at 90 min post injection, suspended in 50% CH3 CN, homogenized and centrifuged at 5000 rpm. The supernatant was filtered and analyzed by RP-HPLC.

Data set [3] addresses T1, αVβ3 integrin on human umbilical vein endothelial cells (HUVEC) (human (endogenous in HUVEC)), P06756.
T1 chain 1: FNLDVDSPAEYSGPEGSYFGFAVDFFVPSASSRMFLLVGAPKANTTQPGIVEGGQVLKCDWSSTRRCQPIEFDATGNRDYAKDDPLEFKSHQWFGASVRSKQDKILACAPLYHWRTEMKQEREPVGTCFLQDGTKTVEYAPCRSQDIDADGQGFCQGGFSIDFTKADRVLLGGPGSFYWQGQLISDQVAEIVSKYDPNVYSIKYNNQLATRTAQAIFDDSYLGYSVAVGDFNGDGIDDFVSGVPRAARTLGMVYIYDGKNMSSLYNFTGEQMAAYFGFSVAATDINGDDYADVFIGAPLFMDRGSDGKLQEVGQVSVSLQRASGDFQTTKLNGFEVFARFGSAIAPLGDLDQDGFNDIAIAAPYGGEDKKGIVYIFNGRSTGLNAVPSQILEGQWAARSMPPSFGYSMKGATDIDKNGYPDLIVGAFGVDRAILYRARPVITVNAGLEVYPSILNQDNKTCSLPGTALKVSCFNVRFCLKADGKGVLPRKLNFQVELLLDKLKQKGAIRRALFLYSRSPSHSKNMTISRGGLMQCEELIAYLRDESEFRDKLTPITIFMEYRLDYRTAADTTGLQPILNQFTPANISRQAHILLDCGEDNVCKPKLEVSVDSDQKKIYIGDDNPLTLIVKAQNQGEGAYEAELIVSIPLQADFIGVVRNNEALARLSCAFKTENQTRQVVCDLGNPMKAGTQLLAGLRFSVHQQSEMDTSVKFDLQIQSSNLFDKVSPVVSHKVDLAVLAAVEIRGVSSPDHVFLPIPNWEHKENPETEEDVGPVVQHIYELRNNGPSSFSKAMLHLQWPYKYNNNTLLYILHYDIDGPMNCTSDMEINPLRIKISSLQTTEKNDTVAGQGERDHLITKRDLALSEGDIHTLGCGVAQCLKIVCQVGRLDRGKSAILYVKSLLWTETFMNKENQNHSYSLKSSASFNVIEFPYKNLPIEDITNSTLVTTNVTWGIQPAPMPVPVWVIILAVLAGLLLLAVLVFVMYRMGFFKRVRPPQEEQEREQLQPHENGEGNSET
T1 chain 2: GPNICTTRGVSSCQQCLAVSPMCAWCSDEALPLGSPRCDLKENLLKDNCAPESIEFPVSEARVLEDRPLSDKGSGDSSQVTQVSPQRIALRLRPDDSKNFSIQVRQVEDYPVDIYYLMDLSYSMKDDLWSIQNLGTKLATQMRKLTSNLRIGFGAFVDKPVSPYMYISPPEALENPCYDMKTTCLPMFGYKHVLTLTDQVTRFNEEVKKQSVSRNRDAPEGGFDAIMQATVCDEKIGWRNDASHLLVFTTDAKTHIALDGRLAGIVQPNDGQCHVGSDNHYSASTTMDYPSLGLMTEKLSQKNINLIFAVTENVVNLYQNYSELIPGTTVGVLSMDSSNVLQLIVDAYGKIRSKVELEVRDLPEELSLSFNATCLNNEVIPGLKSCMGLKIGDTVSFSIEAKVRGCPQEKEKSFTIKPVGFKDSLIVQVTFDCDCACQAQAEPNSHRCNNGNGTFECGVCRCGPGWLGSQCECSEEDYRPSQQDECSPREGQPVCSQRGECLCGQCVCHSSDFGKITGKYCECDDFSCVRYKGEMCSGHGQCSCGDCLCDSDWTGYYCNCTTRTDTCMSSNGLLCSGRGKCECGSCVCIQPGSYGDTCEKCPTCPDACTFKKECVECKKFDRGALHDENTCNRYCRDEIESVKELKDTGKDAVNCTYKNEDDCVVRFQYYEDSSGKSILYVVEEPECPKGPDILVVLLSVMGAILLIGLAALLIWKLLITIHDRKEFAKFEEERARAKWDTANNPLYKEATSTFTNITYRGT
In words: flow cytometry on cells; HUVEC pretreated with Mn2+ (20 μM) for 10 min, washed, then (8) 0-200 nM for 1 h at room temperature. Particulars: remark: other sources report otherwise. Background: In flow cytometry, cells or beads pass a laser one at a time.

In data set [4] the target is T1, αVβ3 integrin on human umbilical vein …. The experiment in a line: radioligand binding; HUVEC pretreated with Mn2+ (20 μM) for 10 min, washed, then (7) 0-100 nM for 1 h at room temperature; gamma well counting. Particulars: remark: other sources report otherwise.

Like-named read-outs stand apart in the source and are kept apart here.

In general, Kd refers to the equilibrium constant for the complex coming apart. Regarding fibrinogen, at α V β 3 receptor, the Kd was 27 nM and the k off is 0.00098 s⁻¹.

Take vibronectin: classical adhesive protein: on α V β 3 receptor, the Kd is 64 nM and the k off was 0.00021 s⁻¹.

`N=C(N)NCCC[C@@H]1NC(=O)[C@H](CCCCNC(=O)COCCOCCn2cc(CNC(=O)CC[C@H](NC(=O)CCOCCOCCOCCOCCNC(=S)Nc3ccc(CC4CN(CC(=O)O)CCN(CC(=O)O)CCN4CC(=O)O)cc3)C(=O)NCc3cn(CCOCCOCC(=O)NCCCC[C@@H]4NC(=O)[C@@H](Cc5ccccc5)NC(=O)[C@H](CC(=O)O)NC(=O)CNC(=O)[C@H](CCCNC(=N)N)NC4=O)nn3)nn2)NC(=O)[C@@H](Cc2ccccc2)NC(=O)[C@H](CC(=O)O)NC(=O)CNC1=O` (stereo partly shown) [compound 7]: the tissue uptake at […] in data set [1] (intestines, read-out: uptake in intestines) was 4.62 ± 0.24 %ID/g; in data set [1] (kidney cortex, read-out: uptake in kidney cortex) it was 11.1 ± 2.2 %ID/g; in data set [1] (kidney medulla, read-out: uptake in kidney medulla), 3.66 ± 0.4 %ID/g; in data set [1] (lungs, read-out: uptake in lungs) it was 2.95 ± 0.43 %ID/g; in data set [1] (spleen, read-out: uptake in spleen) it was 2.25 ± 0.33 %ID/g. Besides, the “activity in the feces” value in data set [2] (feces collected at 90 min post injection, RP-HPLC) is recorded as “no detectable activity”. Besides, in data set [2] (urine collected at 90 min post injection, HPLC), the “fraction remaining intact in the urine” value was “more than 90%”.

B1: FITC-PEG4-cRGD2 (8) (peptide)
chain: cyclo(RGDFK)
modifications: also: cyclic RGD dimer: each peptide via N3-PEG2 triazole on Glu bis-propargyl amide, PEG4, fluorescein (from FITC)
B1: the increase of binding against HUVECs without Mn2+ in data set [3] came to 78%.

B2: 64Cu-NOTA-PEG4-cRGD2 (7) (peptide)
chain: cyclo(RGDFK)
modifications: also: cyclic RGD dimer: each peptide via N3-PEG2 triazole on Glu bis-propargyl amide, PEG4, NOTA, 64Cu
Take B2: the increase of binding against HUVECs without Mn2+ in data set [4] was found to be 78%.
